This is an account of results in patent US10669272B2, “Substituted naphthyridinone compounds useful as T cell activators” (BRISTOL-MYERS SQUIBB COMPANY, priority 2018, dated 2020).

The term EC50 denotes the concentration at which the effect is half-maximal. The term IC50 denotes the concentration that inhibits the measured activity by half.

For one experiment, the system named is Human venous whole blood. The experiment is described as follows: Human whole blood IFN-γ assay.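 Note: blood from healthy donors exposed to compound for 1 h before stimulation with anti-CD3 and anti-CD28 at 1 µg/mL each, IFN-γ quantified in supernatant by AlphaLISA.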 It is filed as cell-based. The conditions noted are these: human whole blood, read-out: INFg Whole Blood Normalized Agonist EC50.
The target of another experiment is T1, human DGKζ (Homo sapiens, UniProt Q13574).
T1 construct: TVMV protease cleavage site (C); Hexa-His (C); made in house; host or cells: Sf9 insect cells (baculovirus, Bac-to-Bac)
T1 sequence (Q13574 with tags, fused parts or gaps isoform Q13574-4): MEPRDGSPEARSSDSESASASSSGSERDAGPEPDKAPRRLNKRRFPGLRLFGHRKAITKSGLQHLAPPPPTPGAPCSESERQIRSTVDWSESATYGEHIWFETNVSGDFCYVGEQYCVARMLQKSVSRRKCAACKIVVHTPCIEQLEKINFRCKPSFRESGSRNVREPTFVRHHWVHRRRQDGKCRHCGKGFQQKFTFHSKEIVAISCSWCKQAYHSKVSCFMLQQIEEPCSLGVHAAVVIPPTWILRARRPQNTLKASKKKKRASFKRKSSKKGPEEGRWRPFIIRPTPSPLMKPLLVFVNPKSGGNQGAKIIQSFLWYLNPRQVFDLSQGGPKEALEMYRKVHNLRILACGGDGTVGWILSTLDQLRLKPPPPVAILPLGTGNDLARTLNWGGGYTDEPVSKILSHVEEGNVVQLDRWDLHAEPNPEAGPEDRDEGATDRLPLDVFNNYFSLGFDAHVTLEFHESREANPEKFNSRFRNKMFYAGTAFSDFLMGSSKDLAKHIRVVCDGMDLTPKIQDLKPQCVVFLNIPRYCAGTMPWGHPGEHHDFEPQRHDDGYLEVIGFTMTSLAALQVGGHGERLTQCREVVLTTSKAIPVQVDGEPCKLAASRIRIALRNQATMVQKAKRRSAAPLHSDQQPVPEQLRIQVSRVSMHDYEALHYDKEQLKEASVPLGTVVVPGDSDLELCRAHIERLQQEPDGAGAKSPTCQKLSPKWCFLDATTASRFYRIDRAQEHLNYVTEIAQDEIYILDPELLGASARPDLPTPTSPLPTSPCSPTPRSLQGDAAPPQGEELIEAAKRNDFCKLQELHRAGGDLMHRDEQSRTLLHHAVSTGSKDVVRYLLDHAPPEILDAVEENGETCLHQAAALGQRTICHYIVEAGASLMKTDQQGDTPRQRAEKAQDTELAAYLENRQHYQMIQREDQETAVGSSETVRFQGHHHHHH
The experiment can be described thus: DGKζ LIPGLO assay (extruded liposome substrate), in vitro DGK inhibition. It counts as biochemical. The conditions noted are these: read-out: DGKz LIPGLO IC50.

For a further experiment, the target named is T2, human DGKα (Homo sapiens, UniProt P23743).
T2 construct: TVMV protease cleavage site (C); Hexa-His (C); made in house; host or cells: Sf9 insect cells (baculovirus, Bac-to-Bac)
T2 sequence (P23743 with tags, fused parts or gaps): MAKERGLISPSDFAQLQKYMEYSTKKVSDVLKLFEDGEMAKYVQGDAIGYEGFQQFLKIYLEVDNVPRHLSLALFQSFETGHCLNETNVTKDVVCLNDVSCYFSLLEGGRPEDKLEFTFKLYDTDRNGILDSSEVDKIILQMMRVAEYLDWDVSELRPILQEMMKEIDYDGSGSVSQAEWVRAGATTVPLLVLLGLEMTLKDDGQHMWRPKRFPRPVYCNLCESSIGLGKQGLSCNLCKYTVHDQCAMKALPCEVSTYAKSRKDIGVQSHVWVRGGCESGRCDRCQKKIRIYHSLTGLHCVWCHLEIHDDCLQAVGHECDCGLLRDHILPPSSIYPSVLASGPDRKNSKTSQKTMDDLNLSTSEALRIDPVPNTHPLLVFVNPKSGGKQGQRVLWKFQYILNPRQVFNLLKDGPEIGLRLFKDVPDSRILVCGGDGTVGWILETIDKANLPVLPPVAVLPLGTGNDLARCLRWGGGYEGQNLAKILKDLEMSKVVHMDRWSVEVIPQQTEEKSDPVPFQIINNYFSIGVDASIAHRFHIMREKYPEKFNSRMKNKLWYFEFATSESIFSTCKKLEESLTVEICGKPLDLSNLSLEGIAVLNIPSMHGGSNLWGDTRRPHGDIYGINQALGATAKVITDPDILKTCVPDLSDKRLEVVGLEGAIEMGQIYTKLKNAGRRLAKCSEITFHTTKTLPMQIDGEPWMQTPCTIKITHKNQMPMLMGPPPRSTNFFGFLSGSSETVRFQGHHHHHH
The experiment can be described thus: DGKα LIPGLO assay (extruded liposome substrate), in vitro DGK inhibition. It counts as biochemical.

[1] abbreviates: Homo sapiens, 24 h, anti-CD3 plus anti-CD28, 24 hours, 3 μM reference compound = 100% activation.
Where [2] appears, read: DGKα liposome (LIPGLO) assay, read-out: DGKa LIPGLO IC50.
Where [3] appears, read: Homo sapiens, 24 h, normalized to 3 μM reference compound with anti-CD3 plus anti-CD28 as 100% activation.
Setting [4] is: liposome (LIPGLO) assay, read-out: DGKa LIPGLO IC50.
Setting [5] is: anti-CD3 plus anti-CD28, 24 hours, 3 μM reference compound = 100% activation.
The mark [6] stands for this setting: normalized to 3 μM reference compound with anti-CD3 plus anti-CD28 as 100% activation.

Like-named read-outs stand apart in the source and are kept apart here.

Experimental for Human venous whole blood: Human Whole Blood IFN-γ Assay
Human venous whole blood (22.5 μL per well), obtained from healthy donors, was pre-treated with compounds for one hour at 37° C. in a humidified 95% air/5% CO2 incubator. The blood was stimulated with 2.5 μL anti-human CD3 and anti-CD28 mAb at a final concentration of 1 μg/mL each for 24 hours at 37° C. IFN-γ in the supernatants was measured using AlphLISA kit (Cat # AL217).

On to `Cc1c(F)cccc1CN1CCN(c2c(C#N)c(=O)n(C)c3ccc(C#N)nc23)C[C@H]1C` [Example 1010], for which the EC50 in the experiment with Human venous whole blood (setting [1]) was found to be 2000 nM. Also, the values for the IC50 on human DGKζ (DGKζ liposome (LIPGLO) assay) and at human DGKα (setting [2]) were 1000 nM and 1800 nM, respectively.

As to `COCCOc1cc(C(C)N2C[C@H](C)N(c3cc(=O)n(C)c4ccc(C#N)nc34)C[C@H]2C)ccc1OC` (single isomer, unassigned) [Example 1302], in the experiment on Human venous whole blood (setting [3]), the EC50 is 20000 nM. Moreover, the IC50 at human DGKζ (liposome (LIPGLO) assay) stood at 6600 nM; on human DGKα (setting [4]), 130000 nM.

Turning to `C[C@@H]1CN(c2c(C#N)c(=O)n(C)c3ccc(C#N)nc23)[C@@H](C)CN1C(c1ccc(F)cc1)c1cnn(C)c1` (stereo partly drawn) [Example 847], the EC50 with Human venous whole blood (setting [5]) is 5000 nM. The figures for the IC50 at human DGKζ (DGKζ liposome (LIPGLO) assay) and on human DGKα (setting [2]) were 7400 nM and 22000 nM, respectively.

On to `CC[C@@H]1CN(c2cc(=O)n(C)c3ccc(C#N)nc23)[C@@H](C)CN1C(c1ccc(F)cc1)c1ccc(C(F)(F)F)cn1` (single isomer, unassigned) [Example 1106], for which the EC50 with Human venous whole blood (setting [6]) was found to be 520 nM. Also, the results for the IC50 on human DGKζ (liposome (LIPGLO) assay) and at human DGKα (setting [4]) were 120 nM and 270 nM, respectively.

As to `COC[C@@H]1CN(c2cc(=O)n(C)c3ccc(C#N)nc23)[C@@H](C)CN1C(c1ccc(F)cc1)c1ccon1` (single isomer, unassigned) [Example 1400], the EC50 in the experiment on Human venous whole blood (setting [6]) was found to be 120 nM. Moreover, the IC50 on human DGKζ (liposome (LIPGLO) assay) is 20 nM; on human DGKα (setting [4]), 53 nM.

In the case of `CC[C@H]1CN(C(c2ccc(F)cc2)c2cc(C3CC3)on2)[C@H](CC)CN1c1cc(=O)n(C)c2ccc(C#N)nc12` (single isomer, unassigned) [Example 1075], the EC50 in the experiment on Human venous whole blood (setting [6]) is 37 nM. For the same molecule, the IC50 on human DGKζ (liposome (LIPGLO) assay) turned out to be 27 nM; at human DGKα (setting [4]), 11 nM.

Turning to `CC[C@@H]1CN(c2cc(=O)n(C)c3ccc(C#N)nc23)[C@@H](CC)CN1Cc1cc(F)c(F)c(F)c1` [Example 1354], the EC50 in the experiment on Human venous whole blood (setting [3]) came to 1200 nM. For the same molecule, the IC50 at human DGKζ (liposome (LIPGLO) assay) came to 840 nM; at human DGKα (setting [4]), 1600 nM.

Take `CC(c1ccc(Cl)cc1)N1C[C@H](C)N(c2c(C#N)c(=O)n(C)c3ccc(C#N)nc23)C[C@H]1C` (single isomer, unassigned) [Example 791]: the EC50 in the experiment with Human venous whole blood (setting [5]) is 1300 nM. Further, the IC50 amounted to 5700 nM on human DGKζ (DGKζ liposome (LIPGLO) assay) and 1900 nM against human DGKα (DGKa LIPGLO IC50, DGKα liposome (LIPGLO) assay).

For `C[C@@H]1CN(c2cc(=O)n(C)c3ccc(C#N)nc23)[C@@H](C)CN1C(c1ccc(OC(F)(F)F)cc1)c1ccc(F)cn1` (single isomer, unassigned) [Example 466], in the experiment on Human venous whole blood (setting [6]), the EC50 turned out to be 5500 nM. In addition, the results for the IC50 at human DGKζ (liposome (LIPGLO) assay) and at human DGKα (setting [4]) were 1800 nM and 190 nM, respectively.

In the case of `CC(c1ccc(F)cn1)N1C[C@H](C)N(c2cc(=O)n(C)c3ccc(C#N)nc23)C[C@H]1C` (single isomer, unassigned) [Example 641], the EC50 in the experiment with Human venous whole blood (setting [6]) was determined as 5900 nM. In addition, the IC50 was determined as 15000 nM on human DGKζ (liposome (LIPGLO) assay) and 1700 nM at human DGKα (setting [4]).

In the case of `Cc1ccnc(C(c2ccc(Cl)cc2)N2C[C@H](C)N(c3cc(=O)n(C)c4ccc(C#N)nc34)C[C@H]2C)c1` (single isomer, unassigned) [Example 448], the EC50 in the experiment on Human venous whole blood (setting [6]) came out at 1100 nM. Moreover, the IC50 on human DGKζ (liposome (LIPGLO) assay) and at human DGKα (setting [4]) was 660 nM in each case.

Consider `C[C@@H]1CN(c2cc(=O)n(C)c3ccc(C#N)nc23)[C@@H](C)CN1C(c1ccc(F)cc1)c1cncn1C` (stereo partly drawn) [Example 704], for which the EC50 with Human venous whole blood (setting [3]) was 17000 nM. The values for the IC50 at human DGKζ (liposome (LIPGLO) assay) and at human DGKα (setting [4]) were 46000 nM and 86000 nM, respectively.

In the case of `C[C@@H]1CN(c2cc(=O)n(C)c3ccc(C#N)nc23)[C@@H](C)CN1Cc1cc(C#N)cs1` [Example 1422, 8-((2S,5R)-4-((4-cyanothiophen-2-yl)methyl)-2,5-dimethylpiperazin-1-yl)-5-methyl-6-oxo-5,6-dihydro-1,5-naphthyridine-2-carbonitrile], the EC50 in the experiment with Human venous whole blood (setting [3]) was 6900 nM. Besides, the 50% inhibitory concentration (IC50) amounted to 4200 nM on human DGKζ (liposome (LIPGLO) assay) and 290 nM at human DGKα (setting [4]).

For the molecule `C[C@@H]1CN(c2cc(=O)n(C)c3ccc(C#N)nc23)[C@@H](C)CN1C(c1ccc(F)cc1)c1nccs1` (single isomer, unassigned) [Example 711], in the experiment with Human venous whole blood (setting [3]), the EC50 amounted to 1700 nM. Moreover, the IC50 stood at 3600 nM at human DGKζ (liposome (LIPGLO) assay) and 69 nM on human DGKα (setting [4]).

With `COc1ccc(C(c2cccc(F)c2)N2C[C@H](C)N(c3cc(=O)n(C)c4ccc(C#N)nc34)C[C@H]2C)nc1` (single isomer, unassigned) [Example 686], in the experiment with Human venous whole blood (setting [6]), the EC50 is 560 nM. In addition, the IC50 at human DGKζ (liposome (LIPGLO) assay) was determined as 3400 nM; on human DGKα (setting [4]) it was 4300 nM.

For the molecule `C[C@@H]1CN(c2c(C#N)c(=O)n(C)c3ccc(C#N)nc23)[C@@H](C)CN1C(c1ccc(F)cc1)c1ccccn1` (single isomer, unassigned) [Example 842], in the experiment on Human venous whole blood (setting [5]), the 50% effective concentration (EC50) worked out at 20000 nM. Moreover, the IC50 on human DGKζ (DGKζ liposome (LIPGLO) assay) worked out at 3300 nM; at human DGKα (setting [2]) it was 1200 nM.

As for `CC[C@@H]1CN(c2cc(=O)n(C)c3ccc(C#N)nc23)[C@@H](C)CN1C(C)c1ccc(OC)cc1` (single isomer, unassigned) [Example 1350], the EC50 in the experiment with Human venous whole blood (setting [6]) came out at 30 nM. For the same molecule, the values for the IC50 at human DGKζ (liposome (LIPGLO) assay) and at human DGKα (setting [4]) were 11 nM and 97 nM, respectively.

With `C[C@@H]1CN(c2cc(=O)n(C)c3ccc(C#N)nc23)[C@@H](C)CN1C(c1ccc(F)cc1)C1CCS(=O)(=O)CC1` (single isomer, unassigned) [Example 1300], the EC50 in the experiment with Human venous whole blood (setting [3]) was 7000 nM. Besides, the IC50 on human DGKζ (liposome (LIPGLO) assay) was determined as 1800 nM; on human DGKα (setting [4]) it was 14000 nM.

For the molecule `Cc1ccc(CN2CCN(c3c(C#N)c(=O)n(C)c4ccc(C#N)nc34)C[C@H]2C)cc1F` [Example 1002], the EC50 with Human venous whole blood (setting [1]) is 5500 nM. Further, the IC50 on human DGKζ (DGKζ liposome (LIPGLO) assay) was found to be 4700 nM; at human DGKα (setting [2]), 2700 nM.

For `C[C@@H]1CN(c2cc(=O)n(C)c3ccc(C#N)nc23)[C@@H](C)CN1Cc1ccc(C2(C#N)CC2)cc1` [Example 567], the EC50 in the experiment with Human venous whole blood (setting [3]) was 20000 nM. Besides, the figures for the IC50 on human DGKζ (liposome (LIPGLO) assay) and at human DGKα (setting [4]) were 18000 nM and 2800 nM, respectively.

As for `CC[C@@H]1CN(c2cc(=O)n(C)c3ccc(C#N)nc23)[C@@H](CC)CN1Cc1ccc(OC(F)(F)F)cc1` [Example 1363], the EC50 with Human venous whole blood (setting [3]) stood at 430 nM. In addition, the IC50 at human DGKζ (liposome (LIPGLO) assay) was determined as 550 nM; at human DGKα (setting [4]) it was 45 nM.

Regarding `CC[C@H]1CN(C(c2ccc(F)cc2)c2ccccn2)[C@H](CC)CN1c1cc(=O)n(C)c2ccc(C#N)nc12` (single isomer, unassigned) [Example 1043], the EC50 in the experiment with Human venous whole blood (setting [3]) is 390 nM. The IC50 came to 290 nM on human DGKζ (liposome (LIPGLO) assay) and 49 nM on human DGKα (setting [4]).

Turning to `Cc1ccc(F)c(CN2CCN(c3c(C#N)c(=O)n(C)c4ccc(C#N)nc34)C[C@H]2C)c1` [Example 1006], the EC50 in the experiment on Human venous whole blood (setting [1]) amounted to 11000 nM. Besides, the IC50 at human DGKζ (DGKζ liposome (LIPGLO) assay) was 7000 nM; on human DGKα (setting [2]) it was 2600 nM.

Consider `CC(c1ccc(C2CC2)cc1)N1C[C@H](C)N(c2cc(=O)n(C)c3ccc(C#N)nc23)C[C@H]1C` (single isomer, unassigned) [Example 1214], for which the EC50 in the experiment on Human venous whole blood (setting [6]) was determined as 220 nM. The IC50 on human DGKζ (liposome (LIPGLO) assay) and on human DGKα (setting [4]) was 75 nM each time.

`C[C@@H]1CN(c2cc(=O)n(C)c3ccc(C#N)nc23)[C@@H](C)CN1C(c1ccc(F)cc1)c1cnsc1` (single isomer, unassigned) [Example 716]: the EC50 in the experiment on Human venous whole blood (setting [6]) was 3100 nM. Also, the IC50 at human DGKζ (liposome (LIPGLO) assay) is 20000 nM; at human DGKα (setting [4]), 6600 nM.

Turning to `CC(c1ccc(OC(C)(C)C)cc1)N1C[C@H](C)N(c2cc(=O)n(C)c3ccc(C#N)nc23)C[C@H]1C` (single isomer, unassigned) [Example 1441], the EC50 in the experiment with Human venous whole blood (setting [6]) was 5400 nM. The IC50 stood at 4800 nM on human DGKζ (liposome (LIPGLO) assay) and 20000 nM at human DGKα (setting [4]).
